Assay results taken from PubChem BioAssay (NCI).
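Cells were grown in 96-well plates and exposed to each compound for 48 hours at five concentrations; endpoints were interpolated linearly between bracketing concentrations, or set to the highest concentration if not reached. At the GI50, growth is halved. TGI denotes the concentration required for complete inhibition of growth.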

How the values were obtained:
Test in all cases: DTP human tumour cell line panel, 48 h
HCT-116 colon = test system: HCT-116 colon
SF-539 CNS = test system: SF-539 CNS
HOP-92 NSCLC = test system: HOP-92 NSCLC
SR leukemia = test system: SR leukemia
HT29 colon = test system: HT29 colon
UACC-62 melanoma = test system: UACC-62 melanoma
EKVX NSCLC = test system: EKVX NSCLC
NCI/ADR-RES ovarian = test system: NCI/ADR-RES ovarian
MDA-MB-231 breast = test system: MDA-MB-231 breast
HS 578T breast = test system: HS 578T breast

SMILES: Cc1c(N2CCCC2)cc2c(c1NC(=O)c1ccccc1Cl)C(C)(C)CC2(C)C
- TGI (HCT-116 colon): 22.8 µM
- TGI (SF-539 CNS): 39.7 µM
- TGI (HOP-92 NSCLC): 24 µM
- TGI (SR leukemia): 38.1 µM
- TGI (HT29 colon): 29.4 µM
- TGI (UACC-62 melanoma): 23.2 µM
- TGI (EKVX NSCLC): 29.9 µM
- TGI (NCI/ADR-RES ovarian): 29.5 µM
- TGI (MDA-MB-231 breast): 29.3 µM
- TGI (HS 578T breast): 38.4 µM

SMILES: OC(c1cccc(-n2ccc(C(F)(F)F)n2)c1)c1cnccc1NC1CCCCCC1 (stereo not given)
- GI50 (HCT-116 colon): 1.79 µM
- TGI (HCT-116 colon): 3.59 µM
- GI50 (SF-539 CNS): 1.69 µM
- TGI (SF-539 CNS): 3.1 µM
- GI50 (HOP-92 NSCLC): 1.21 µM
- TGI (HOP-92 NSCLC): 2.53 µM
- GI50 (SR leukemia): 1.79 µM
- TGI (SR leukemia): 6.49 µM
- GI50 (HT29 colon): 1.8 µM
- TGI (HT29 colon): 4.33 µM
- GI50 (UACC-62 melanoma): 1.74 µM
- TGI (UACC-62 melanoma): 3.14 µM
- GI50 (EKVX NSCLC): 1.66 µM
- TGI (EKVX NSCLC): 3.16 µM
- GI50 (NCI/ADR-RES ovarian): 1.81 µM
- TGI (NCI/ADR-RES ovarian): 3.35 µM
- GI50 (MDA-MB-231 breast): 1.69 µM
- TGI (MDA-MB-231 breast): 3.16 µM
- GI50 (HS 578T breast): 1.64 µM
- TGI (HS 578T breast): 3.69 µM

SMILES: C=CC[n+]1c(/C=C/C=C2\N(C)c3ccccc3C2(C)C)sc2ccc(OC)cc21
- GI50 (HCT-116 colon): 0.159 µM
- TGI (HCT-116 colon): 11.9 µM
- GI50 (SF-539 CNS): 0.329 µM
- TGI (SF-539 CNS): 13.9 µM
- GI50 (HOP-92 NSCLC): 0.201 µM
- TGI (HOP-92 NSCLC): 1.61 µM
- GI50 (SR leukemia): 0.101 µM
- TGI (SR leukemia): 7.12 µM
- GI50 (HT29 colon): 0.272 µM
- TGI (HT29 colon): 6.05 µM
- GI50 (UACC-62 melanoma): 0.195 µM
- TGI (UACC-62 melanoma): 2.65 µM
- GI50 (EKVX NSCLC): 0.264 µM
- TGI (EKVX NSCLC): 15.5 µM
- GI50 (NCI/ADR-RES ovarian): 7.76 µM
- TGI (NCI/ADR-RES ovarian): 69.2 µM
- GI50 (MDA-MB-231 breast): 0.272 µM
- TGI (MDA-MB-231 breast): 1.65 µM
- GI50 (HS 578T breast): 0.465 µM
- TGI (HS 578T breast): 25.4 µM

SMILES: CCc1nc(N)nc(N)c1-c1ccc(NCCN)c([N+](=O)[O-])c1
- TGI (HCT-116 colon): > 100 µM
- TGI (SF-539 CNS): > 100 µM
- TGI (HOP-92 NSCLC): > 100 µM
- TGI (SR leukemia): > 55.8 µM
- TGI (HT29 colon): > 100 µM
- TGI (UACC-62 melanoma): > 100 µM
- TGI (EKVX NSCLC): > 100 µM
- TGI (NCI/ADR-RES ovarian): > 100 µM
- TGI (MDA-MB-231 breast): > 100 µM
- TGI (HS 578T breast): > 100 µM

SMILES: COc1cc(C(=O)/C=C/c2c(C)n([O-])c3ccc(C)cc3[n+]2=O)cc(OC)c1OC
- GI50 (HCT-116 colon): 1.54 µM
- TGI (HCT-116 colon): 2.95 µM
- GI50 (SF-539 CNS): 2.84 µM
- TGI (SF-539 CNS): 7.12 µM
- GI50 (HOP-92 NSCLC): 5.56 µM
- TGI (HOP-92 NSCLC): > 27.1 µM
- GI50 (SR leukemia): 2.15 µM
- TGI (SR leukemia): 7.42 µM
- GI50 (HT29 colon): 4.84 µM
- TGI (HT29 colon): 16.5 µM
- GI50 (UACC-62 melanoma): 8.46 µM
- TGI (UACC-62 melanoma): 32.4 µM
- GI50 (EKVX NSCLC): 19.4 µM
- TGI (EKVX NSCLC): > 100 µM
- GI50 (NCI/ADR-RES ovarian): 8.47 µM
- TGI (NCI/ADR-RES ovarian): > 70.6 µM
- GI50 (MDA-MB-231 breast): 10.6 µM
- TGI (MDA-MB-231 breast): > 100 µM
- GI50 (HS 578T breast): 14.7 µM
- TGI (HS 578T breast): 60.7 µM

SMILES: C/C(=N\NC(=O)c1sc(=S)n(C)c1N)c1cc2ccccc2o1
- GI50 (HCT-116 colon): 16.2 µM
- TGI (HCT-116 colon): 32 µM
- GI50 (SF-539 CNS): 12.9 µM
- TGI (SF-539 CNS): 25.9 µM
- GI50 (HOP-92 NSCLC): 10.3 µM
- TGI (HOP-92 NSCLC): 25.4 µM
- GI50 (SR leukemia): 8.04 µM
- TGI (SR leukemia): 22 µM
- GI50 (HT29 colon): 5.05 µM
- TGI (HT29 colon): 18.9 µM
- GI50 (UACC-62 melanoma): 18.5 µM
- TGI (UACC-62 melanoma): 61.8 µM
- GI50 (EKVX NSCLC): 11.9 µM
- TGI (EKVX NSCLC): 29.3 µM
- GI50 (NCI/ADR-RES ovarian): 11 µM
- TGI (NCI/ADR-RES ovarian): 26 µM
- GI50 (MDA-MB-231 breast): 4.86 µM
- TGI (MDA-MB-231 breast): 16.5 µM
- GI50 (HS 578T breast): 11.7 µM
- TGI (HS 578T breast): 31.2 µM

SMILES: N#Cc1c(-c2ccccc2)nc(SCC2CO2)nc1N1CCOCC1 (stereo not given)
- GI50 (HCT-116 colon): 20.5 µM
- TGI (HCT-116 colon): > 100 µM
- GI50 (SF-539 CNS): 10.6 µM
- TGI (SF-539 CNS): > 95.4 µM
- GI50 (HOP-92 NSCLC): 0.284 µM
- TGI (HOP-92 NSCLC): 1.22 µM
- GI50 (SR leukemia): 12.3 µM
- TGI (SR leukemia): > 53.3 µM
- GI50 (HT29 colon): 29.7 µM
- TGI (HT29 colon): > 100 µM
- GI50 (UACC-62 melanoma): 3.52 µM
- TGI (UACC-62 melanoma): > 86.9 µM
- GI50 (EKVX NSCLC): 4.73 µM
- TGI (EKVX NSCLC): > 78.5 µM
- GI50 (NCI/ADR-RES ovarian): 11.3 µM
- TGI (NCI/ADR-RES ovarian): > 95.5 µM
- GI50 (MDA-MB-231 breast): 15.8 µM
- TGI (MDA-MB-231 breast): > 100 µM
- GI50 (HS 578T breast): 1.93 µM
- TGI (HS 578T breast): 11.8 µM

SMILES: COc1ccc(-c2cc(-c3cc(Cl)ccc3Cl)nc3n[nH]c(N)c23)cc1
- GI50 (HCT-116 colon): 6.32 µM
- TGI (HCT-116 colon): 29.3 µM
- GI50 (SF-539 CNS): 25.2 µM
- TGI (SF-539 CNS): 59 µM
- GI50 (HOP-92 NSCLC): 22.3 µM
- TGI (HOP-92 NSCLC): > 100 µM
- GI50 (SR leukemia): 10.1 µM
- TGI (SR leukemia): 52.5 µM
- GI50 (HT29 colon): 6.32 µM
- TGI (HT29 colon): > 100 µM
- GI50 (UACC-62 melanoma): 41.9 µM
- TGI (UACC-62 melanoma): > 100 µM
- GI50 (EKVX NSCLC): 34.6 µM
- TGI (EKVX NSCLC): > 100 µM
- GI50 (NCI/ADR-RES ovarian): 18 µM
- TGI (NCI/ADR-RES ovarian): > 100 µM
- GI50 (MDA-MB-231 breast): 34 µM
- TGI (MDA-MB-231 breast): > 100 µM
- GI50 (HS 578T breast): 25.3 µM
- TGI (HS 578T breast): 87 µM
